In PubChem BioAssay (NCI):
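Following 48 hours of exposure in 96-well plates, responses at five concentrations were used to interpolate endpoints linearly. GI50: concentration for 50% inhibition of growth. TGI denotes the concentration required for complete inhibition of growth.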

Assays:
Experiment in all cases: NCI tumour cell line growth inhibition, 48 h
ACHN renal = system: ACHN renal
SN12C renal = system: SN12C renal
SR leukemia = system: SR leukemia
K-562 leukemia = system: K-562 leukemia
786-0 renal = system: 786-0 renal
KM12 colon = system: KM12 colon
SK-MEL-5 melanoma = system: SK-MEL-5 melanoma
UACC-257 melanoma = system: UACC-257 melanoma
SF-295 CNS = system: SF-295 CNS
NCI-H522 lung = system: NCI-H522 lung
BT-549 breast = system: BT-549 breast
SF-539 CNS = system: SF-539 CNS
DU-145 prostate = system: DU-145 prostate
SNB-75 CNS = system: SNB-75 CNS
HCT-15 colon = system: HCT-15 colon
EKVX NSCLC = system: EKVX NSCLC
NCI-H226 lung = system: NCI-H226 lung
UACC-62 melanoma = system: UACC-62 melanoma
M14 melanoma = system: M14 melanoma
SW-620 colon = system: SW-620 colon
T-47D breast = system: T-47D breast
SK-MEL-2 melanoma = system: SK-MEL-2 melanoma
A549 NSCLC = system: A549 NSCLC
HCT-116 colon = system: HCT-116 colon
LOX IMVI melanoma = system: LOX IMVI melanoma
COLO 205 colon = system: COLO 205 colon
NCI-H23 lung = system: NCI-H23 lung
HS 578T breast = system: HS 578T breast
MALME-3M melanoma = system: MALME-3M melanoma
IGROV1 ovarian = system: IGROV1 ovarian
SF-268 CNS = system: SF-268 CNS
UO-31 renal = system: UO-31 renal
CCRF-CEM leukemia = system: CCRF-CEM leukemia
HT29 colon = system: HT29 colon
HOP-92 NSCLC = system: HOP-92 NSCLC
SK-OV-3 ovarian = system: SK-OV-3 ovarian
MOLT-4 leukemia = system: MOLT-4 leukemia
SNB-19 CNS = system: SNB-19 CNS
OVCAR-8 ovarian = system: OVCAR-8 ovarian
RXF 393 renal = system: RXF 393 renal
MDA-MB-231 breast = system: MDA-MB-231 breast
A498 renal = system: A498 renal
CAKI-1 renal = system: CAKI-1 renal
OVCAR-3 ovarian = system: OVCAR-3 ovarian
HL-60(TB) leukemia = system: HL-60(TB) leukemia
U251 CNS = system: U251 CNS
MCF7 breast = system: MCF7 breast
SK-MEL-28 melanoma = system: SK-MEL-28 melanoma
OVCAR-4 ovarian = system: OVCAR-4 ovarian
HCC-2998 colon = system: HCC-2998 colon
PC-3 prostate = system: PC-3 prostate
NCI/ADR-RES ovarian = system: NCI/ADR-RES ovarian
TK-10 renal = system: TK-10 renal
MDA-MB-435 = system: MDA-MB-435
OVCAR-5 ovarian = system: OVCAR-5 ovarian
HOP-62 NSCLC = system: HOP-62 NSCLC
RPMI-8226 leukemia = system: RPMI-8226 leukemia
NCI-H460 lung = system: NCI-H460 lung

## CCc1c2c(nc3ccc(OC(=O)NCc4ccc(B5OC(C)(C)C(C)(C)O5)cc4)cc13)-c1cc3c(c(=O)n1C2)COC(=O)[C@]3(O)CC
ACHN renal
  GI50: 20.2 nM
  TGI: 1130 nM
SN12C renal
  GI50: < 10 nM
  TGI: > 100000 nM
SR leukemia
  GI50: < 10 nM
  TGI: > 100000 nM
K-562 leukemia
  GI50: 34.3 nM
  TGI: > 100000 nM
786-0 renal
  GI50: 13.6 nM
  TGI: 346 nM
KM12 colon
  GI50: 167 nM
  TGI: > 30100 nM
SK-MEL-5 melanoma
  GI50: 35.6 nM
  TGI: 301 nM
UACC-257 melanoma
  GI50: 226 nM
  TGI: 3360 nM
SF-295 CNS
  GI50: 16 nM
  TGI: 3400 nM
NCI-H522 lung
  GI50: 16.7 nM
  TGI: 3870 nM
BT-549 breast
  GI50: 52 nM
  TGI: 2740 nM
SF-539 CNS
  GI50: < 10 nM
  TGI: 77.1 nM
DU-145 prostate
  GI50: 16.8 nM
  TGI: > 100000 nM
SNB-75 CNS
  GI50: 19.9 nM
  TGI: 448 nM
HCT-15 colon
  GI50: 277 nM
  TGI: > 100000 nM
EKVX NSCLC
  GI50: 758 nM
  TGI: > 81900 nM
NCI-H226 lung
  GI50: 21.6 nM
  TGI: 635 nM
UACC-62 melanoma
  GI50: < 10 nM
  TGI: 220 nM
M14 melanoma
  GI50: < 10 nM
  TGI: 104 nM
SW-620 colon
  GI50: 22.7 nM
T-47D breast
  GI50: < 10 nM
  TGI: > 100000 nM
SK-MEL-2 melanoma
  GI50: 790 nM
  TGI: > 22600 nM
A549 NSCLC
  GI50: 82.5 nM
  TGI: 8090 nM
HCT-116 colon
  GI50: < 10.8 nM
  TGI: > 100000 nM
LOX IMVI melanoma
  GI50: < 10 nM
  TGI: 167 nM
COLO 205 colon
  GI50: 73.4 nM
  TGI: 11000 nM
NCI-H23 lung
  GI50: 18.1 nM
  TGI: 771 nM
HS 578T breast
  GI50: 1140 nM
  TGI: 15900 nM
MALME-3M melanoma
  GI50: 74.1 nM
  TGI: 1310 nM
IGROV1 ovarian
  GI50: 214 nM
  TGI: > 42700 nM
SF-268 CNS
  GI50: < 10 nM
  TGI: 4040 nM
UO-31 renal
  GI50: 27.4 nM
  TGI: 294 nM
CCRF-CEM leukemia
  GI50: < 10 nM
  TGI: > 100000 nM
HT29 colon
  GI50: 120 nM
  TGI: > 21200 nM
HOP-92 NSCLC
  GI50: 42 nM
  TGI: 2470 nM
SK-OV-3 ovarian
  GI50: 28.6 nM
  TGI: 8180 nM
MOLT-4 leukemia
  GI50: < 10 nM
  TGI: > 100000 nM
SNB-19 CNS
  GI50: < 10 nM
  TGI: > 100000 nM
OVCAR-8 ovarian
  GI50: 22.8 nM
  TGI: > 100000 nM
RXF 393 renal
  GI50: 27.9 nM
  TGI: 322 nM
MDA-MB-231 breast
  GI50: 1590 nM
  TGI: > 84100 nM
A498 renal
  GI50: 14.1 nM
  TGI: 175 nM
CAKI-1 renal
  GI50: 16.2 nM
  TGI: 1100 nM
OVCAR-3 ovarian
  GI50: 148 nM
  TGI: 3200 nM
HL-60(TB) leukemia
  GI50: < 19.1 nM
U251 CNS
  GI50: < 10 nM
  TGI: > 100000 nM
MCF7 breast
  GI50: < 10 nM
  TGI: > 100000 nM
SK-MEL-28 melanoma
  GI50: 577 nM
  TGI: 8900 nM
OVCAR-4 ovarian
  GI50: 392 nM
  TGI: 63700 nM
HCC-2998 colon
  GI50: 250 nM
  TGI: 3560 nM
PC-3 prostate
  GI50: 144 nM
  TGI: > 100000 nM
NCI/ADR-RES ovarian
  GI50: 51.1 nM
  TGI: > 100000 nM
TK-10 renal
  GI50: 1600 nM
  TGI: > 91400 nM
MDA-MB-435
  GI50: 107 nM
  TGI: 2700 nM
OVCAR-5 ovarian
  GI50: 287 nM
  TGI: > 24300 nM
HOP-62 NSCLC
  GI50: < 10 nM
  TGI: 2920 nM
RPMI-8226 leukemia
  GI50: 270 nM
  TGI: 3480 nM
NCI-H460 lung
  GI50: 14.1 nM
  TGI: 343 nM
